IC50 data for 29 molecules are collected here from patent publication US20170001990A1 (Genentech, Inc., priority 2014, published 2017).

SMILES strings stand for the structures.

The target of this experiment is Human recombinant carboxy-terminal his-tagged LDHA (amino acids 2-332) (Homo sapiens, UniProt P00338). The experiment can be described thus: LDHA enzyme inhibition assay (NADH fluorescence). To be noted: LDHA IC50 (μM), 1 nM LDHA, NADH and pyruvate, stereochemistry of tested sample given.
With `O=C1CC(c2ccsc2)(c2cccc(Oc3cccc(C(F)F)c3)n2)NC(=O)C1Sc1ccccc1Cl` (single isomer, unassigned) [Example 136, 3-(2-chlorophenyl)sulfanyl-6-[6-[3-(difluoro-methyl)phenoxy]-2-pyridyl]-6-(3-thienyl) piperidine-2,4-dione], the IC50 came out at 0.222 µM.
As for `O=C1CC(c2ccsc2)(c2cccc(Oc3cccc4ncccc34)n2)NC(=O)C1Sc1ccccc1Cl` (single isomer, unassigned) [Example 137, 3-(2-chlorophenyl)sulfanyl-6-[6-(5-quinolyloxy)-2-pyridyl]-6-(3-thienyl) piperidine-2,4-dione], the figure is 0.073 µM; as for `O=C1CC(c2ccsc2)(c2cccc(OCCC3CCC3)n2)NC(=O)C1Sc1ccccc1Cl` (single isomer, unassigned) [Example 141, 3-(2-chlorophenyl)sulfanyl-6-[6-(2-cyclobutyl-ethoxy)-2-pyridyl]-6-(3-thienyl)piperidine-2,4-dione], 0.003 µM.
On to `O=C1CC(c2ccsc2)(c2cccc(OCCCC(F)(F)F)n2)NC(=O)C1Sc1ccccc1Cl` (single isomer, unassigned) [Example 142, 3-(2-chlorophenyl)sulfanyl-6-(3-thienyl)-6-[6-(4,4,4-trifluorobutoxy)-2-pyridyl]piperidine-2,4-dione], for which the IC50 is 0.031 µM.
In the case of `O=C1CC(c2ccsc2)(c2cccc(Oc3ccc(F)c(Br)c3)n2)NC(=O)C1Sc1ccccc1Cl` (single isomer, unassigned) [Example 143, 6-[6-(3-bromo-4-fluoro-phenoxy)-2-pyridyl]-3-(2-chlorophenyl)sulfanyl-6-(3-thienyl)piperidine-2,4-dione], the IC50 stood at 0.033 µM.
As for `O=C1CC(c2ccsc2)(c2cccc(Oc3ccc(F)c(C(F)(F)F)c3)n2)NC(=O)C1Sc1ccccc1Cl` (single isomer, unassigned) [Example 144, 3-(2-chlorophenyl)sulfanyl-6-[6-[4-fluoro-3-(trifluoromethyl)phenoxy]-2-pyridyl]-6-(3-thienyl) piperidine-2,4-dione], the figure is 0.143 µM.
With `CC(C)(O)CCOc1cccc(C2(c3ccsc3)CC(=O)C(Sc3ccccc3Cl)C(=O)N2)n1` (single isomer, unassigned) [Example 145, 3-(2-chlorophenyl)sulfanyl-6-[6-(3-hydroxy-3-methyl-butoxy)-2-pyridyl]-6-(3-thienyl)piperidine-2,4-dione], the IC50 is 0.088 µM.
`O=C1CC(c2ccsc2)(c2cccc(Cc3cc(F)cc(F)c3)n2)NC(=O)C1Sc1ccccc1Cl` (single isomer, unassigned) [Example 146, 3-(2-chlorophenyl)sulfanly-6-[6-[(3,5-difluorophenyl)methyl]-2-pyridyl]-6-(3-thienyl)piperidine-2,4-dione]: the IC50 is 0.189 µM.
As for `O=C1CC(c2ccsc2)(c2cccc(OCCCC(F)(F)F)n2)NC(=O)C1Sc1ccccc1Cl` (single isomer, unassigned) [Example 148, 3-(2-chlorophenyl)sulfanyl-6-(3-thienyl)-6-[6-(4,4,4-trifluorobutoxy)-2-pyridyl]piperidine-2,4-dione], the figure is 0.014 µM.
In the case of `O=C1CC(c2ccsc2)(c2cccc(Oc3ccc(F)c(Br)c3)n2)NC(=O)C1Sc1ccccc1Cl` (single isomer, unassigned) [Example 149, 6-[6-(3-bromo-4-fluoro-phenoxy)-2-pyridyl]-3-(2-chlorophenyl)sulfanyl-6-(3-thienyl)piperidine-2,4-dione] it was 0.069 µM; in that of `CC(C)(O)CCOc1cccc(C2(c3ccsc3)CC(=O)C(Sc3ccccc3Cl)C(=O)N2)n1` (single isomer, unassigned) [Example 155, 3-(2-chlorophenyl)sulfanyl-6-[6-(3-hydroxy-3-methyl-butoxy)-2-pyridyl]-6-(3-thienyl)piperidine-2,4-dione], 0.025 µM; in that of `COc1cc(F)cc(Cc2cccc(C3(c4ccsc4)CC(=O)C(Sc4ccccc4Cl)C(=O)N3)n2)c1` (single isomer, unassigned) [Example 156, 3-(2-chlorophenyl)sulfanyl-6-[6-[(3-fluoro-5-methoxy-phenyl)methyl]-2-pyridyl]-6-(3-thienyl) piperidine-2,4-dione], 0.072 µM.
In the case of `O=C1CC(c2ccsc2)(c2cccc(OC3CCCCC3)n2)NC(=O)C1Sc1ccccc1Cl` (single isomer, unassigned) [Example 157, 3-(2-chlorophenyl)sulfanyl-6-[6-(cyclohexoxy)-2-pyridyl]-6-(3-thienyl) piperidine-2,4-dione] it was 0.03 µM; in that of `CC1(COc2cccc(C3(c4ccsc4)CC(=O)C(Sc4ccccc4Cl)C(=O)N3)n2)CC1` (single isomer, unassigned) [Example 158, 3-(2-chlorophenyl)sulfanyl-6-[6-[(1-methylcyclo-propyl)methoxy]-2-pyridyl]-6-(3-thienyl)piperidine-2,4-dione], 0.018 µM; in that of `CC(Oc1cccc(C2(c3ccsc3)CC(=O)C(Sc3ccccc3Cl)C(=O)N2)n1)C1CC1` (single isomer, unassigned) [Example 159, 3-((2-chlorophenyl)thio)-6-(6-(1-cyclopropyl-ethoxy)pyridin-2-yl)-6-(thiophen-3-yl)piperidine-2,4-dione], 0.004 µM.
Turning to `O=C1CC(c2ccsc2)(c2cccc(Sc3ccc(F)cc3)n2)NC(=O)C1Sc1ccccc1Cl` (single isomer, unassigned) [Example 160, 3-(2-chlorophenyl)sulfanyl-6-[6-(4-fluorophenyl)sulfanyl-2-pyridyl]-6-(3-thienyl)piperidine-2,4-dione], the IC50 was determined as 0.008 µM.
As for `O=C1CC(c2ccsc2)(c2cccc(OCCC3CCCCC3)n2)NC(=O)C1Sc1ccccc1Cl` (single isomer, unassigned) [Example 161, 3-(2-chlorophenyl)sulfanyl-6-[6-(2-cyclohexylethoxy)-2-pyridyl]-6-(3-thienyl) piperidine-2,4-dione], the figure is 0.019 µM.
In the case of `O=C1CC(c2ccsc2)(c2cccc(OCC3CCOCC3)n2)NC(=O)C1Sc1ccccc1Cl` (single isomer, unassigned) [Example 163, 3-((2-chlorophenyl)thio)-6-(6-((tetrahydro-2H-pyran-4-yl)methoxy)pyridin-2-yl)-6-(thiophen-3-yl)piperidine-2,4-dione] it was 0.194 µM.
As for `O=C1CC(c2ccsc2)(c2cccc(OCC3CC(F)(F)C3)n2)NC(=O)C1Sc1ccccc1Cl` (single isomer, unassigned) [Example 165], the figure is 0.004 µM.
Turning to `O=C1CC(c2ccsc2)(c2cccc(OCCC3CCC3)n2)NC(=O)C1Sc1ccccc1Cl` (single isomer, unassigned) [Example 168, 3-(2-chlorophenyl)sulfanyl-6-[6-(2-cyclobutylethoxy)-2-pyridyl]-6-(3-thienyl) piperidine-2,4-dione], the IC50 is 0.19 µM.
As for `CC(C)(O)CCOc1cccc(C2(c3ccsc3)CC(=O)C(Sc3ccccc3Cl)C(=O)N2)n1` (single isomer, unassigned) [Example 170, 3-(2-chlorophenyl)sulfanyl-6-[6-(3-hydroxy-3-methyl-butoxy)-2-pyridyl]-6-(3-thienyl)piperidine-2,4-dione], the IC50 was found to be 0.145 µM.
As for `COc1cc(F)cc(Cc2cccc(C3(c4ccsc4)CC(=O)C(Sc4ccccc4Cl)C(=O)N3)n2)c1` (single isomer, unassigned) [Example 171, 3-(2-chlorophenyl)sulfanyl-6-[6-[(3-fluoro-5-methoxy-phenyl)methyl]-2-pyridyl]-6-(3-thienyl) piperidine-2,4-dione], the IC50 was determined as 0.101 µM.
On to `O=C1CC(c2ccsc2)(c2cccc(Oc3ccccc3Br)n2)NC(=O)C1Sc1ccccc1Cl` (single isomer, unassigned) [Example 172, 6-[6-(2-bromophenoxy)-2-pyridyl]-3-(2-chloro-phenyl)sulfanyl-6-(3-thienyl)piperidine-2,4-dione], for which the half-maximal inhibitory concentration (IC50) is 0.056 µM.
As for `O=C1CC(c2ccsc2)(c2cccc(Oc3cc(F)cc(CO)c3)n2)NC(=O)C1Sc1ccccc1Cl` (single isomer, unassigned) [Example 176, 3-(2-chlorophenyl)sulfanyl-6-[6-[3-fluoro-5-(hydroxymethyl)phenoxy]-2-pyridyl]-6-(3-thienyl) piperidine-2,4-dione], the figure is 0.01 µM.
In the case of `O=C1CC(c2ccsc2)(c2cccc(Cc3ccccc3)n2)NC(=O)C1Sc1ccccc1Cl` (single isomer, unassigned) [Example 180, 6-(6-benzyl-2-pyridyl)-3-(2-chlorophenyl)sulfanyl-6-(3-thienyl)piperidine-2,4-dione], the IC50 is 0.002 µM.
As for `O=C1CC(c2ccsc2)(c2cccc(OC3CCCCC3)n2)NC(=O)C1Sc1ccccc1Cl` (single isomer, unassigned) [Example 181, 3-(2-chlorophenyl)sulfanyl-6-[6-(cyclohexoxy)-2-pyridyl]-6-(3-thienyl) piperidine-2,4-dione], the figure is 0.006 µM.
For the molecule `CC1(COc2cccc(C3(c4ccsc4)CC(=O)C(Sc4ccccc4Cl)C(=O)N3)n2)CC1` (single isomer, unassigned) [Example 182, 3-(2-chlorophenyl)sulfanyl-6-[6-[(1-methylcyclo-propyl)methoxy]-2-pyridyl]-6-(3-thienyl)piperidine-2,4-dione], the IC50 was determined as 0.056 µM.
Turning to `CC(Oc1cccc(C2(c3ccsc3)CC(=O)C(Sc3ccccc3Cl)C(=O)N2)n1)C1CC1` (single isomer, unassigned) [Example 184, 3-(2-chlorophenyl)sulfanyl-6-[6-(1-cyclopropylethoxy)-2-pyridyl]-6-(3-thienyl) piperidine-2,4-dione], the half-maximal inhibitory concentration (IC50) was 0.002 µM.
Take `O=C1CC(c2ccsc2)(c2cccc(OCCC3CCCCC3)n2)NC(=O)C1Sc1ccccc1Cl` (single isomer, unassigned) [Example 185, 3-(2-chlorophenyl)sulfanyl-6-[6-(2-cyclohexylethoxy)-2-pyridyl]-6-(3-thienyl) piperidine-2,4-dione]: the half-maximal inhibitory concentration (IC50) was 0.055 µM.

In general, IC50 refers to the concentration that inhibits the measured activity by half.
